From patent US20240216900A1, “SABRE CATALYSTS CONTAINING FLUORINATED CARBON CHAINS FOR DELIVERY OF METAL-FREE MRI CONTRAST AGENTS” (The U.S.A., as represented by the Secretary, Department of …, priority 2022, published 2024)

Columns and labels:
[1] = cited from earlier work
[2] = Relaxation dynamics of hyperpolarized [1-13C]pyruvate (build-up time Tb and T1)
Description: In addition, the relaxation dynamics of the [1-^13C]pyruvate were also studied.
In addition, relaxation dynamics at earth field and 1.8 T are about the same as a non-fluorinated SABRE catalyst T1=28.9±1.6 s and 66.5±7 s, respectively.

[3] = as above; remark: listed apart in the source
[4] = Example 7: Example 4 catalyst, DMSO, methanol
[5] = Example 25: Example 4 catalyst, DMSO, NFBME/MeOD fluorous mixture
[6] = Example 31: Example 4 catalyst, DMSO, CD3OD/Novec 7100
[7] = Example 32: Example 4 catalyst, PTMSO, CD3OD/Novec 7100

Compound	H2 solubility in water [1]	T1 at 1.8T [2, 4]	T1 at earth field [2, 4]	T1 at 1.8T [2, 5]	T1 at earth field [2, 5]	T1 at 1.8T [2, 6]	T1 at earth field [2, 6]	T1 at 1.8T [2, 7]	T1 at earth field [2, 7]	T1 (relaxation at 0.4 μT) [3, 4]	T1 (relaxation at 0.4 μT) [3, 5]	T1 (relaxation at 0.4 μT) [3, 6]	T1 (relaxation at 0.4 μT) [3, 7]
[HH] [Example H2]	about 1.6 mg/L	–	–	–	–	–	–	–	–	–	–	–	–
CC(=O)C(=O)O [[1-^13C]pyruvate, sodium [1-^13C]pyruvate]	–	66.5 ± 7 s	28.9 ± 1.6 s	16.0 ± 1.4 s	9.0 ± 1.9 s	66.5 ± 3.6 s	9.3 ± 0.8 s	59.0 ± 8.1 s	14.9 ± 1.0 s	16.1 ± 0.9 s	11.3 ± 1.3 s	12.6 ± 1.1 s	18.0 ± 0.8 s
